Laboratory results from patent publication US6362394B1, “Juvenile hormone or one of its agonists as a chemical ligand to control gene expression in plants by receptor mediated transactivation” (Syngenta Participations AG, priority 1995, dated 2002).

Legend:
[1] = molecular target: T1, receptor polypeptide VP16-USP (Drosophila melanogaster, UniProt P20153); assay: Chemical induction of luciferase in isolated leaves of transgenic Arabidopsis expressing VP16-USP with a DR-Luciferase reporter; type: cell-based; set-up: expressed in transfected cells; host or cells: transgenic Arabidopsis thaliana (Columbia), isolated leaves; Agrobacterium T-DNA construct; settings: approximately 24 hours; for Fold increase in luciferase activity: 10 μM; for Luciferase Activity: 35S/VP16-USP, 10 μM ligand in 0.1% ethanol, light units per 10 seconds per 100 μg extract protein, control 638
T1 sequence (P06492 413-490, one chain of several): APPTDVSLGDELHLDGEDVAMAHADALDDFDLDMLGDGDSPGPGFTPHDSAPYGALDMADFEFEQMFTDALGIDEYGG
Experimental: Arabidopsis thaliana (Columbia) was transformed with an Agrobacterium vector harboring a CaMV 35S promoter and a DR-Luciferase reporter (as described in Example 13 above) by the following vacuum-infiltration procedure. Electrocompetent GV3101 Agrobacterium cells were prepared by incubating GV3101 Agrobacterium in 2×YT media at 28° C. with aeration for 24-30 hours to an OD600 of 0.5-0.7 units. Cells were chilled on ice for 10-30 minutes, and centrifuged at 5,000 RPM for 5 minutes at 4° C. The supernatant was discarded, and the cell pellet resuspended in 1 volume of ice-cold 10% glycerol. Cells were again centrifuged at 5,000 RPM for 5 minutes at 4° C. The supernatant was discarded, and the cell pellet resuspended in 0.05 volumes of ice-cold 10% glycerol. Cells were again centrifuged at 5,000 RPM for 5 minutes at 4° C. The supernatant was discarded, and the cell pellet resuspended in 0.02 volume of ice-cold 10% glycerol. Cells were again centrifuged at 5,000 RPM for 5 minutes at 4° C. The supernatant was discarded, and the cell pellet resuspended 0.02 volume of ice-cold 10% glycerol. Cells were again centrifuged at 5,000 RPM for 5 minutes at 4° C. The supernatant was discarded, and the cell pellet resuspended in 0.01 volume of ice-cold 10% glycerol. Cells were aliquoted in […] amounts per 1.5 ml microfuge tubes, quick-frozen in liquid N2, and stored at −80° C. Electrocompetent cells were used before 6 weeks storage at −80° C. Frozen electrocompetent cells were thawed on ice and 40 ml transfered to a pre-chilled 1.5 ml microfuge tube. 1 ml of the appropriate Agrobacterium plasmid DNA (2-10 ng) was added to the thawed cells and mixed on ice. The cell/plasmid mixture was transfered to a prechilled 0.2 cm Bio-Rad electroporation cuvette, and electroporated at 2.0 KVolts, 600 Ohms, 25 μFarad, with a 6 msec time constant. 1 †ml of 2×YT media was added to the electroporation cuvette, the cell/plasmid solution was mixed with a pipet tip, and the contents transfered to a fresh 1.5 ml microfuge tube. Cells were then incubated at […] for 1 hour on a shaker at 200 RPM. The cells were centrifuged down for 2 minutes at a setting of 6 in an Eppendorph adjustable-speed microfuge, the supernatant decanted, and the cell pellet resuspended in the remaining liquid. Resuspended cells were spread on an LB media plate with the appropriate antibiotic. Plates were incubated at 28-30° C. for […]. A 50 ml LB culture was innoculated with a single transformed colony in a 250 ml flask with Rifampicin at 100 μg/ml and Gentomycin at 25 μg/ml and Kanamycin at 100 μg/ml. The culture was incubated for 24-36 hours at 28° C. at 250 RPM and 10 ml of the culture was used to innoculate 500 ml LB+antibiotics in a 2-liter flask. This culture was incubated overnight at 28° C. with shaking at 250 RPM. […]

[2] = molecular target: T2, receptor polypeptides GAL4-EcR^330-825-C1 and USP-VP16 (Drosophila melanogaster, UniProt P20153); assay: Reversal by juvenile hormone agonists of GAL4-EcR-C1 + USP-VP16 activation of a luciferase target cassette in transformed maize cells; type: cell-based; settings: 10 μM ligand, approximately 48 hours
T2 construct: expressed in transfected cells; host or cells: maize suspension cells, microprojectile bombardment
T2 sequence (P06492 411-490, one chain of several): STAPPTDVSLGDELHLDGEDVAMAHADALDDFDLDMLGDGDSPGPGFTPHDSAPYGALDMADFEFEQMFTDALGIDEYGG
From the text: (§1) Control of target polypeptide expression by various receptor polypeptides, including the chimeric receptor polypeptides of the present invention, can be shown by simultaneously transforming plant cells with the necessary gene constructions using high velocity microprojectile bombardment, followed by biochemical assay for the presence of the target polypeptide. The necessary gene constructions comprise a USP receptor expression cassette which encodes a USP receptor polypeptide (FIG. 1). Optionally, the USP receptor expression cassette may be transformed along with a secondary receptor expression cassette which encodes a receptor polypeptide distinct from USP (FIGS. 2 and 3). In addition, a target expression cassette which encodes a target polypeptide is also necessary.
(§2) The expression cassettes were simultaneously delivered to maize suspension cells cultured in liquid N6 medium (Chu et al. Scientia Sinica XVIII:659-668, 1975) by high velocity microprojectile bombardment using standard techniques of DNA precipation onto microprojectiles and high velocity bombardment driven by compressed helium (PDS1000/He, BioRad, Hercules, Calif.). Transfected cells were incubated in liquid suspension in the presence of the appropriate chemical ligand for approximately 48 hours in N6 media. After incubation, the transformed cells were harvested then homogenized at 0° C. Debris in the extracts was removed by centrifugation at 10,000 g at 4° C. for 5 minutes.
(§3) Target polypeptide expression was detected by assaying the extract for the presence of the product encoded by the target expression cassette. One commonly used coding sequence for the target polypeptide when testing control of expression by the receptor polypeptides in the presence of a chemical ligand is firefly luciferase. The activity of firefly luciferase is determined by quantitating the chemiluminescence produced by luciferase catalyzed phosphorylation of luciferin using ATP as substrate (Promega Luciferase Kit, cat. no. E1500), using an Analytical Luminescence Model 2001 luminometer. […]

RXRα = molecular target: T3, RXRα (Homo sapiens, UniProt P19793); settings: insect and mammalian cells; cited from earlier work
T3 construct: host or cells: insect and mammalian cells (as reported by Harmon et al.)
T3 sequence (P19793 1-462): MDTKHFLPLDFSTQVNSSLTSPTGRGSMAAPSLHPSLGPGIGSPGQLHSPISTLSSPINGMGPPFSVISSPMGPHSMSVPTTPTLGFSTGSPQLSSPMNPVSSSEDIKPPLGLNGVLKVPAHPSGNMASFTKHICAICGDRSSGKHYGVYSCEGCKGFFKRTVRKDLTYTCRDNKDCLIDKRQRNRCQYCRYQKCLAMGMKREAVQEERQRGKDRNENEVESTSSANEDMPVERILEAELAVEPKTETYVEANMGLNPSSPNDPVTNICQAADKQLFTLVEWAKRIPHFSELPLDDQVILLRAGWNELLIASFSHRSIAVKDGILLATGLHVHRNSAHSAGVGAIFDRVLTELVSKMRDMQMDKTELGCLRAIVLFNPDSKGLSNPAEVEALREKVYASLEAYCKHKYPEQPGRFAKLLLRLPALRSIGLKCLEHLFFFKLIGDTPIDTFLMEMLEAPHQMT

[3] = molecular target: T1, receptor polypeptide VP16-USP; assay: VP16-USP activation of a direct repeat luciferase target cassette in transformed maize cells; type: cell-based; set-up: expressed in transfected cells; settings: 35S/VP16-USP, target (DR3)3-Bz1TATA/Luc, 10 μM ligand, 48 hours, no ligand 29,967
From the text: as §1, with “necessary. […]” for “necessary.”
Target polypeptide expression was detected by assaying the extract for the presence of the product encoded by the target expression cassette. […] The activity of firefly luciferase is determined by quantitating the chemiluminescence produced by luciferase catalyzed phosphorylation of luciferin using ATP as substrate (Promega Luciferase Kit, cat. no. E1500), using an Analytical Luminescence Model 2001 luminometer. […]

[4] = molecular target: T4, receptor polypeptides GAL4-EcR^330-825-C1 and USP-VP16 (Drosophila melanogaster, UniProt P20153+P34021); assay: Tebufenozide-induced activation by GAL4-EcR-C1 + USP-VP16 of a luciferase target cassette in maize cells, and its block by methoprene; type: cell-based; settings: approximately 48 hours
T4 construct: expressed in transfected cells; host or cells: maize suspension cells, microprojectile bombardment
From the text: as §1, §2, §3

USP = molecular target: T5, USP (Drosophila melanogaster, UniProt P20153); settings: Drosophila cell-culture assays; conditions in which RXR is responsive; cited from earlier work
T5 construct: host or cells: Drosophila cell culture (as reported by Oro et al. and Harmon et al.)
T5 sequence (P20153 1-508): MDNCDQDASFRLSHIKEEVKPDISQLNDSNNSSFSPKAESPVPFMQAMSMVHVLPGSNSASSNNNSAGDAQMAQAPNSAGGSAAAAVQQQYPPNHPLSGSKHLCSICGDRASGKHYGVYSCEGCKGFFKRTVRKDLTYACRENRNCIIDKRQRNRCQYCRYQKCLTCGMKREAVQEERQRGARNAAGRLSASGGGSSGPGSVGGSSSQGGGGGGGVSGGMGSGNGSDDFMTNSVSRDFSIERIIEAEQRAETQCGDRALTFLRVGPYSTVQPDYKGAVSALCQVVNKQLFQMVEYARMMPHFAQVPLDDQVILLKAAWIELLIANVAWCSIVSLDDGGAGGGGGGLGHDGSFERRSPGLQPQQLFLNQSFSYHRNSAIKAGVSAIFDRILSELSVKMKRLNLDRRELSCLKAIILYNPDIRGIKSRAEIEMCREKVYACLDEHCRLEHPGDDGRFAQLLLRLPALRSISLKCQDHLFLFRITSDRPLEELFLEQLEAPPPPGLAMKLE

[5] = molecular target: USP-VP16 chimeric receptor polypeptide (Drosophila; herpes simplex virus) (UniProt P20153); assay: cell-based or functional assay
[6] = Experiment #1, 35S/GAL4-EcR^330-825-C1 + 35S/USP-VP16, target (GAL4b.s.)10-Bz1TATA/Luc, no ligand 277,862

Molecule: COC(C)(C)CCC[C@H](C)C/C=C/C(C)=C/C(=O)OC(C)C (racemic) [Methoprene]
- Fold increase in luciferase activity [1]: 25 fold
- Luciferase Activity [1]: 15,790 light units
- Luciferase Activity [2, 6]: 14,786 light units
- Luciferase Activity ([2]; Experiment #2, 35S/GAL4-EcR^330-825-C1 + 35S/USP-VP16, target (GAL4b.s.)10-Bz1TATA/Luc, no ligand 178,092): 5,730 light units
- RXRα-mediated transcriptional activation of a recombinant reporter gene (RXRα): transcriptionally activate
- Luciferase Activity [3]: 485,458 light units
- Effect on tebufenozide-induced activation of luciferase gene expression ([4]; 10 μM methoprene with 10 μM tebufenozide): completely blocked

Molecule: CCOC(=O)NCCOc1ccc(Oc2ccccc2)cc1 [Fenoxycarb, ethyl [2-(4-phenoxyphenoxy)ethyl]carbamate]
- Fold increase in luciferase activity [1]: 6.2 fold
- Luciferase Activity [1]: 3,991 light units
- Luciferase Activity [2, 6]: 77,418 light units

Molecule: CCc1ccc(C(=O)NN(C(=O)c2cc(C)cc(C)c2)C(C)(C)C)cc1 [Tebufenozide]
- Tebufenozide-induced activation of luciferase gene expression, fold increase when used alone ([4]; 10 μM): approximately 6 fold
- Luciferase Activity ([4]; 35S/GAL4-EcR^330-825-C1 + 35S/USP-VP16, target (GAL4b.s.)10-Bz1TATA/Luc, 10 μM each ligand, no ligand 178,092): 908,912 light units

Molecule: COC(C)(C)CCCC(C)C/C=C/C(C)=C/C(=O)O (centres unmarked) [methoprene acid]
- Activation / response of USP (USP): does not respond
- RXRα-mediated transcriptional activation of a recombinant reporter gene (RXRα): transcriptionally activate

Molecule: GAL4-EcR^330-825-C1 chimeric receptor polypeptide (from UniProt P04386 1-147; P34021 330-825; P10290 219-273)
- Luciferase Activity (light units) of the (GAL4b.s.)10-Bz1TATA/Luc reporter in maize cells, Experiment #1, no chemical ligand [5]: 278000 light units
- Luciferase Activity (light units) of the (GAL4b.s.)10-Bz1TATA/Luc reporter in maize cells, Experiment #1, with 10 uM Fenoxycarb [5]: 77400 light units
- Luciferase Activity (light units) of the (GAL4b.s.)10-Bz1TATA/Luc reporter in maize cells, Experiment #1, with 10 uM Methoprene [5]: 14800 light units
- Luciferase Activity (light units) of the (GAL4b.s.)10-Bz1TATA/Luc reporter in maize cells, Experiment #2, no chemical ligand [5]: 178000 light units
- Luciferase Activity (light units) of the (GAL4b.s.)10-Bz1TATA/Luc reporter in maize cells, Experiment #2, with 10 uM Methoprene [5]: 5730 light units
- Luciferase Activity (light units) of the (GAL4b.s.)10-Bz1TATA/Luc reporter in maize cells, with 10 uM Tebufenozide [5]: 909000 light units
- Luciferase Activity (light units) of the (GAL4b.s.)10-Bz1TATA/Luc reporter in maize cells, with 10 uM Tebufenozide + 10 uM Methoprene [5]: 160000 light units
- level of tebufenozide-induced activation of luciferase gene expression (fold increase, tebufenozide alone) [5]: 6 fold

Molecule: Juvenile hormone
- RXRα-mediated transcriptional activation of a recombinant reporter gene (RXRα): does not induce
